Source: patent publication US11897917B2, “Bioconjugation of polypeptides” (The University of York, priority 2017, dated 2024)
Like-named read-outs stand apart in the source and are kept apart here.

Key:
[1] = biological target: GFP(Y39ThzK) 2B (Aequorea victoria, UniProt P42212, F64L/H231L/S65T/V163A/Y39K); conditions: for effect on GFP (denaturation / unfolding): initial screen, 100 equivalents
Method: Palladium reagent 9 to 12 (stock 550 mM in DMSO, final concentration 33 mM) was added to 2b (stock 330 μM in buffer D1, final concentration 300 μM) in a 0.5 mL Eppendorf tube. The reaction mixture was vortex mixed for 1 s and incubated in a water bath at 37° C. The reaction was quenched by the addition of DTT (ca. 5 mg) and centrifuged (5000×g, 2 min). The supernatant was decanted and desalted using a PD SpinTrap G25 column (GE Healthcare Life Sciences) into H2O for mass spectrometry analysis or further manipulation.
Initially a reaction was set up using 25 μM of 2B (final concentration), 100 μM palladium catalyst (final concentration) in PBS pH 7.4. The reaction mix was then incubated at 37° C. for 1 hour before addition of 1 μl of 1% 3-mercaptopropanoic acid solution for every 10 μl of reaction solution in order to quench excess catalyst. Quenched solution was then incubated at room temperature for 15 minutes and then desalted using a PD SpinTrap G25 column (GE Healthcare Life Sciences) into H2O for mass spectrometry analysis or further manipulation. Efficiency of decaging was determined by ESI-MS.
This reaction process was repeated using protein concentrations of 2B up to 300 μM and catalyst concentrations.
9-12 were trialled at 37° C. at pH 7.4 in order to maintain biocompatibility over a range of concentrations and time intervals (Table 1).

[2] = test system: glyoxyl-LYRAG 16A; test: screening of organocatalysts and aldehyde donors for OPAL reaction
Method: Initially a panel of secondary amines was screened to investigate their ability to catalyse the ligation using a model peptide substrate, glyoxyl-LYRAG 16A and acetaldehyde as an aldehyde donor 32. Second order rate constants for each catalyst (33-38) at 1, 10, and 25 mM loadings were obtained. Next the nature of the α-carbon substituent of the aldehyde donor was investigated by performing reactions using aldehyde donors bearing an aryl substituent (e.g. phenyl acetylaldehyde). Reactions were as shown in Scheme 7 below.
Encouraged by the biological compatibility and site selectivity in these preliminary ligations, attention next turned to optimizing the OPAL by focusing on the choice of organocatalyst and aldehyde donor species. Initially a panel of secondary amines (33-38) were screened to investigate their ability to catalyse the ligation using a model peptide substrate α-oxo-aldehyde-LYRAG 16A and acetaldehyde 32, and second order rate constants were obtained for each catalyst at 1, 10, and 25 mM loadings (Table 4).

[3] = test system: α-phenyl-β-hydroxy aldehyde-LYRAG 50; test: screening of aniline catalysts and buffer for retro-aldol decomposition of aldol-LYRAG
Method: The solution was then charged with an aniline catalyst (1M in 50 μl DMSO) selected from compounds 56, 57, 58 and 59 as shown in Scheme 10 below. The reaction was vortexed, and allowed to sit at 37° C. for 18 hours without further agitation. Conversion to the product 16A/16B was confirmed by LC-MS analysis.
[…] The solution was then charged with p-anisidine catalyst 57 (1M, 50 μl, DMSO). The reaction was vortexed, and allowed to sit at 37° C. for 18 hours without further agitation (Scheme 11). Conversion to the product 16A/16B was confirmed by LC-MS analysis.

[4] = test system: α-phenyl-β-hydroxy aldehyde-LYRAG 50; test: screening of aniline catalysts for oxime ligation of aldol-LYRAG; conditions: 100 mM catalyst, 37° C., 18 hours
Method: […] The solution as then charged with an aniline catalyst 56-59 (1M, 50 μl, DMSO). The reaction was vortexed, and allowed to sit at 37° C. for 18 hours without further agitation. Conversion to the product 52 was confirmed by LC-MS analysis.

[5] = 100 equiv. [Pd], 6 h, 37° C., pH 7.4
[6] = organocatalyst loading 1 mM, Donor R group = CH3
[7] = organocatalyst loading 1 mM, Donor R group = Phenyl-alanine
[8] = organocatalyst loading 10 mM, Donor R group = CH3
[9] = organocatalyst loading 10 mM, Donor R group = Phenyl-alanine
[10] = organocatalyst loading 25 mM, Donor R group = CH3
[11] = organocatalyst loading 25 mM, Donor R group = Phenyl-alanine
[12] = pH 7.5, 50 to 16A, PB 200 mM, 37° C., 18 hours

CC(=O)[O-].CC(=O)[O-].[Pd+2] [compound 9, Palladium(II) acetate]
GFP fluorescence ([1]; 100 equiv. [Pd], 6 h): Yes
GFP fluorescence ([1]; 100 equiv. [Pd], 24 h): Yes
effect on GFP (denaturation / unfolding) ([1]; 37° C., pH 7.4): immediate denaturation and eventual precipitation

CN(C)c1ccc(P(C(C)(C)C)C(C)(C)C)cc1.CN(C)c1ccc(P(C(C)(C)C)C(C)(C)C)cc1.[Cl-].[Cl-].[Pd+2] [compound 10, dichlorobis[di-tert-butyl(4-dimethylaminophenyl)phosphine]palladium(II)]
GFP fluorescence ([1]; 100 equiv. [Pd], 6 h): No
% conversion (decaging) [1, 5]: 0%
% conversion (decaging) ([1]; 100 equiv. [Pd], 24 h): 0%
GFP fluorescence ([1]; 100 equiv. [Pd], 24 h): No

C=C[CH2-].C=C[CH2-].[Cl][Pd+].[Cl][Pd+] [compound 11, Allylpalladium(II) chloride dimer]
concentration at which reagent denatures GFP [1]: greater than 0.5 mM
GFP fluorescence ([1]; 1 equiv. [Pd], 1 h): Yes
GFP fluorescence ([1]; 100 equiv. [Pd], 6 h): No
% conversion (decaging) [1, 5]: 30%
GFP fluorescence ([1]; 100 equiv. [Pd], 24 h): No
effect on GFP (denaturation / unfolding) ([1]; 37° C., pH 7.4): immediate denaturation and eventual precipitation

O=C(/C=C/c1ccccc1)/C=C/c1ccccc1.O=C(/C=C/c1ccccc1)/C=C/c1ccccc1.O=C(/C=C/c1ccccc1)/C=C/c1ccccc1.[Pd].[Pd] [compound 12, Tris(dibenzylideneacetone)dipalladium(0)]
GFP fluorescence ([1]; 1 equiv. [Pd], 1 h): Yes
GFP fluorescence ([1]; 100 equiv. [Pd], 6 h): Yes
% conversion (decaging) ([1]; 100 equiv. [Pd], 24 h): 80%
GFP fluorescence ([1]; 100 equiv. [Pd], 24 h): Yes
% conversion (decaging) ([1]; 100 equiv. [Pd], 40 h): 100%
GFP fluorescence ([1]; 100 equiv. [Pd], 40 h): Yes
% conversion (decaging) ([1]; 100 equiv. [Pd], 68 h): 90%
GFP fluorescence ([1]; 100 equiv. [Pd], 68 h): Yes
% conversion (decaging) ([1]; 200 equiv. [Pd], 6 h): 40%
GFP fluorescence ([1]; 200 equiv. [Pd], 6 h): Yes
Conversion of 2B to 13A/B ([1]; ESI-MS, after 24 h): > 95%
time to completion of decaging ([1]; after condition optimisation): ≤ 24 h
time to complete decaging ([1]; initial conditions): 48 h
effect on GFP (denaturation / unfolding) ([1]; 37° C., pH 7.4): did not lead to GFP unfolding

O=C(O)[C@@H]1CCCN1 [compound 33, L-proline]
Second Order Rate Constant [2, 6]: 0.00009 M⁻¹ s⁻¹
Second Order Rate Constant [2, 7]: 1.684 M⁻¹ s⁻¹
Second Order Rate Constant [2, 8]: 0.0033 M⁻¹ s⁻¹
Second Order Rate Constant [2, 9]: 4.366 M⁻¹ s⁻¹
Second Order Rate Constant [2, 10]: 0.0100 M⁻¹ s⁻¹
Second Order Rate Constant [2, 11]: 7.899 M⁻¹ s⁻¹

C1CCNCC1 [compound 35, Piperidine]
Second Order Rate Constant [2, 6]: >0.0001 M⁻¹ s⁻¹
Second Order Rate Constant [2, 8]: 0.0009 M⁻¹ s⁻¹
Second Order Rate Constant [2, 10]: 0.0016 M⁻¹ s⁻¹

O=C(O)[C@@H]1CCN1 [compound 36, L-Azetidine 2 carboxylic acid]
Second Order Rate Constant [2, 6]: 0.0004 M⁻¹ s⁻¹
Second Order Rate Constant [2, 8]: 0.0024 M⁻¹ s⁻¹
Second Order Rate Constant [2, 10]: 0.0052 M⁻¹ s⁻¹

C1CNCCOC1 [compound 37, Homomorpholine]
Second Order Rate Constant [2, 6]: 0.0022 M⁻¹ s⁻¹
Second Order Rate Constant [2, 8]: 0.0166 M⁻¹ s⁻¹
Second Order Rate Constant [2, 10]: 0.0252 M⁻¹ s⁻¹

C1CN[C@H](c2nnn[nH]2)C1 [compound 38, (S)-(−)-5-(2-Pyrrolidinyl)-1H-tetrazole]
Second Order Rate Constant [2, 6]: 0.0092 M⁻¹ s⁻¹
Second Order Rate Constant [2, 7]: 3.792 M⁻¹ s⁻¹
Second Order Rate Constant [2, 8]: 0.0551 M⁻¹ s⁻¹
Second Order Rate Constant [2, 9]: 11.820 M⁻¹ s⁻¹
Second Order Rate Constant [2, 10]: 0.0997 M⁻¹ s⁻¹
Second Order Rate Constant [2, 11]: 23.947 M⁻¹ s⁻¹

Nc1ccccc1 [compound 56, aniline]
Retro-aldol conversion [3, 12]: 25%
Conjugation Yield (oxime) ([4]; pH 4.5): 61%
Conjugation Yield (oxime) ([4]; pH 7.5): 95%

COc1ccc(N)cc1 [compound 57, p-anisidine]
Retro-aldol conversion ([3]; PB, pH 7.5, conc. 10 (Mm)): 0%
Retro-aldol conversion ([3]; PB, pH 7.5, conc. 50 (Mm)): 13%
Retro-aldol conversion ([3]; PB, pH 7.5, conc. 100 (Mm)): 50%
Retro-aldol conversion [3, 12]: 52%
Conjugation Yield (oxime) ([4]; pH 4.5): 81%
Conjugation Yield (oxime) ([4]; pH 7.5): 92%

COc1ccc(N)c(C(=O)O)c1 [compound 58, 5-methoxy anthranilic acid]
Retro-aldol conversion [3, 12]: 8%
Conjugation Yield (oxime) ([4]; pH 4.5): 34%
Conjugation Yield (oxime) ([4]; pH 7.5): 97%

Nc1cc([N+](=O)[O-])ccc1O [compound 59, 2-Amino-4-nitrophenol]
Retro-aldol conversion [3, 12]: 0%
Conjugation Yield (oxime) ([4]; pH 4.5): precipitates
Conjugation Yield (oxime) ([4]; pH 7.5): 97%

O=CCc1ccccc1 [phenyl acetylaldehyde]
increase in rate over aldehyde donors bearing alkyl substituents ([2]; with L-proline 33 and tetrazole 38): ≥ 240 fold

Pyrrolidine [compound 34]
Second Order Rate Constant [2, 6]: 0.0005 M⁻¹ s⁻¹
Second Order Rate Constant [2, 8]: 0.0037 M⁻¹ s⁻¹
Second Order Rate Constant [2, 10]: 0.0058 M⁻¹ s⁻¹
